Results: US7732401B2, “Inhibitor of TGF-β activation reaction” (Riken, priority 2007, dated 2010)
“Also recorded” adds a separate entry of the source. Where no end group is shown, it is not given here.

Assays:
active TGF-β1 = test: Amount of active TGF-β1 in conditioned medium of hepatic stellate cells (ELISA); assay type: cell-based, rat; conditions: for amount of active TGF-β generated into the conditioned medium, of the control / TGF-β (active TGF-β generated into the conditioned medium): Example 1, peptide 1 mM; for TGF-β (active TGF-β generated into the conditioned medium): Table 1; for inhibition of generation of the active TGF-β in the conditioned medium observed in control cells: Example 4, peptide 0.5 mM
Description: According to the method previously reported (Okuno M. et al., Gastroenterology 2001; 120: 1784-1800), hepatic stellate cells were isolated from the liver of male Wistar rats (body weight: 350 to 400 g; Japan Clea), and the isolated cells were then seeded in a concentration of 1×10^6 cells/dish on a 3.5-cm culture plastic dish. Thereafter, the cells were cultured in 1 ml of Dulbecco's modified Eagle medium (DMEM; manufactured by SIGMA) containing 10% fetal calf serum (FCS; manufactured by GIBCO).
A 60 mM aqueous stock solution of each peptide was prepared, and the peptide was then dissolved in a medium to make a final concentration of 1 mM. Until the 3rd day of isolation, the aforementioned cells were treated in a DMEM medium containing 10% FCS. On the 4th day, the medium was exchanged with serum free DMEM containing 0.1% bovine serum albumin (BSA) and each peptide with a final concentration of 1 mM, and the culture was further continued for 2 to 4 days. Thereafter, the culture medium was collected as a conditioned medium, and the amount of active TGF-β1 present in the conditioned medium was measured using an ELISA kit manufactured by PROMEGA. At the same time, the state of the cells was observed under a microscope (DMIRB; manufactured by Leica) and was then photographed.
Each peptide was dissolved in a medium to a final concentration of 0.5 mM (approximately 500 μg/ml). At the 1st day of isolation, the aforementioned cells were treated in a DMEM medium containing 10% FCS. On the 2nd day, the medium was changed with serum free DMEM containing 0.1% BSA and each peptide at a final concentration of 0.5 mM, and the culture was further continued for 2 to 7 days. Thereafter, the culture medium was collected as a conditioned medium, and the amount of active TGF-β1 present in the conditioned medium was then quantitated using an ELISA kit manufactured by PROMEGA. At the same time, the state of the cells was observed under a microscope (DMIRB; manufactured by Leica) and photographed.

plasma kallikrein = biological target: T1, plasma kallikrein (Homo sapiens, UniProt P03952); test: Cleavage of recombinant human LAP by plasma kallikrein, Western blot semi-quantitative analysis; assay type: biochemical; conditions: Example 3, peptide 2.5 mg/ml, 37° C., 40 minutes, FIG. 6
T1 construct: purchased SIGMA
Description: When 2 μg of recombinant human LAP R & D) (final concentration: 66 μg/ml) was incubated with plasma kallikrein (SIGMA; final concentration of 20 μg/ml), QP peptide, QPA peptide, T200 peptide, and QPQ peptide (SEQ ID NO: 4) were added thereto at a final concentration of 2.5 mg/ml, followed by incubation at 37° C. for 40 minutes. Thereafter, electrophoresis (room temperature, 27 mA, 50 minutes) was carried out using 13.5% polyacrylamide gel, so as to separate LAP (molecular weight: 41 kDa), a LAP degradation product (molecular weight: 38 kDa), and BSA (final concentration: 0.3 mg/ml; molecular weight: […]) used as an additive. Each separated protein or decomposed product was transferred onto a PVDF membrane by using a semi-dry transferring apparatus. According to the method of Akita et al. (Gastroenterology 123; 352-364, 2002), the membrane was then incubated first with a mouse anti-LAP monoclonal antibody (R & D) at a final concentration of 5 μg/ml or a mouse anti-L59 cleavage section-recognizing monoclonal antibody (homemade; International Publication WO2005/023870) at a final concentration of 20 μg/ml, at room temperature for 60 minutes, and then with a horseradish peroxidase-conjugated goat anti-mouse second antibody (Jackson ImmunoResearch Laboratories) at a final concentration of 1 μg/ml at room temperature for 60 minutes. Bands were then developed using an ECL plus reagent (GE Healthcare), so as to carry out the semi-quantitative analysis of the influence of each peptide on the attenuation of LAP band and the generation of LAP degradation product (FIG. 6).

[1] = system: endotoxin (LPS)-preadministered partially-hepatectomized mice; test: LPS-preadministered partially-hepatectomized mice model for impaired liver regeneration, PCNA staining; assay type: in vivo, mouse; conditions: Example 2, 200 μg/head i.v., 8 times; for improvement of impaired liver regeneration due to preadministration of LPS: PCNA staining, FIG. 3 and 4

T1 sequence (P03952 20-638, species assumed): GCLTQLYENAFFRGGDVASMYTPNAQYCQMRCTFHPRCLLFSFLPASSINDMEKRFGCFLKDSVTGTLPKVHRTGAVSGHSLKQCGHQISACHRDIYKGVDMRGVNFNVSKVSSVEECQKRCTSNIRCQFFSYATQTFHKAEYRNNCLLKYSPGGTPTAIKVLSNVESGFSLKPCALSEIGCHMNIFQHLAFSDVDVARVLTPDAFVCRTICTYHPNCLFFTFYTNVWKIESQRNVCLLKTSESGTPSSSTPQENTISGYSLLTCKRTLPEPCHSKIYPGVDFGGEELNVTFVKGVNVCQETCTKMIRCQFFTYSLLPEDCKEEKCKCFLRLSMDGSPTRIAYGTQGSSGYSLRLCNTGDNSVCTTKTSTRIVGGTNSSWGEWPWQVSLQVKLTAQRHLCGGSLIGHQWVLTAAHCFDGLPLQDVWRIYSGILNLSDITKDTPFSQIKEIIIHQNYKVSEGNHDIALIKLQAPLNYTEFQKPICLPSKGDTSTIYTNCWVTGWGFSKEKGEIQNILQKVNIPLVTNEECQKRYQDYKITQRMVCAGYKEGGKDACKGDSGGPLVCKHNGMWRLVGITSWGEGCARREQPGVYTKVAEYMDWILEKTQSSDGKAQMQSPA

Substance	amount of active TGF-β generated into the conditioned medium, of the control (active TGF-β1) [%]	TGF-β (active TGF-β generated into the conditioned medium) (active TGF-β1) [pg/mL]	inhibition of generation of the active TGF-β in the conditioned medium observed in control cells (active TGF-β1) [%]	inhibition of LAP cleavage reaction (attenuation of LAP band, generation of LAP degradation product) (plasma kallikrein)	percentage of PCNA positive cells ([1]; 48 hours after PH, FIG. 4) [%]	improvement of impaired liver regeneration due to preadministration of LPS [1]	improvement of impaired liver regeneration due to preadministration of LPS ([1]; listed as P200 peptide)
N-52QILSAAAAASP62-C (QILSAAALASP) [QPA peptide, mutant of QP peptide with Lys56, Leu57, Arg58 and Leu59 substituted with Ala]	2	4 ± 1	25	only a weak inhibitory effect	47	significantly improved	
N-52QILSQQQQASP62-C [QPQ peptide, mutant of QP peptide with Lys56, Leu57, Arg58 and Leu59 substituted with Gln]			90	more strongly than the QP peptide			
QILSKLRLASP [QP peptide]			55	significantly inhibited		significantly improved; also recorded: completely improved	
TGVVRQWLSRG [T200 peptide, reference compound]	74	160 ± 19		only a weak inhibitory effect		did not exhibit such an improving effect	did not exhibited any such improving effects
